# Patent US9645154B2, “Method for detecting cancer cell” (ARKRAY, Inc., priority 2010, dated 2017)
# Columns and labels:
# [1] = test system: human prostate cancer cell line PC3; experiment: Aminolevulinic acid (with FeCl2 and ascorbic acid at the same concentration) labeling, fluorescence microscopy image analysis (positive rate); format: cell-based
# From the text: In accordance with the conventional method, cultured human prostate cancer cell line PC3 (DS Pharma Biomedical Co., Ltd.) was harvested with trypsin (Invitrogen). The human gastric cancer cell line SNU-1 (ATCC), which is a suspension cell line, was directly harvested without any trypsin treatment. The cell suspension of the harvested cancer cells was centrifuged, and the supernatant was removed. The cells were resuspended with Dulbecco's PBS (+) (Nissui Pharmaceutical Co., Ltd.) and centrifuged, and the supernatant was removed again.
# (§1) When performing the hemolyzing treatment, the collected blood cell fraction was hemolyzed using ammonium chloride (STEMCELL Technologies) at room temperature according to the manufacture's manuals.
# (§2) The number of the cells was counted using a hemacytometer in accordance with the conventional method, and then 10^5 to 10^6 cells per sample (cell suspension) was aliquoted. The sample was centrifuged to remove the supernatant. Subsequently, aminolevulinic acid 5-AMINOLEVULINATE HYDROCHLORIDE (trade name, Cosmo Bio Co., Ltd., at the final concentration given in Table 7 or 8) dissolved in Dulbecco's PBS (+) and FeCl2 and ascorbic acid having the same concentration as that of aminolevulinic acid, respectively, were added thereto, and the cells were suspended well. The number of the cells was adjusted, and then the cells were added dropwise to a 384-well plate. The plate was centrifuged to spin down the cells. The image was captured with a fluorescence microscope (Nikon Corp.).
# (§3) The wavelengths for the fluorescence filter set: EX (excitation wavelength): 402±7.5, DM: 430 or longer, BA (fluorescence wavelength): 625±15.
# The acquired images were analyzed using an image analysis software NIS-ELEMENTS (trade name, Nikon Corp.) to evaluate the fluorescence intensity of the cell. […]
# Blood cells = experiment: Aminolevulinic acid (with FeCl2 and ascorbic acid at the same concentration) labeling, fluorescence microscopy image analysis (false-positive/negative rate); format: cell-based, human
# From the text: Blood was collected from a human subject using a vacuum blood collection tube (with EDTA•2K). Blood cells were separated using HetaSep (STEMCELL Technologies) in accordance with manufacturer's instructions.
# as §1, §2, §3
# The acquired images were analyzed using an image analysis software NIS-ELEMENTS (trade name, Nikon Corp.) to evaluate the fluorescence intensity of the cell.
# [2] = test system: normal human dermal fibroblast cell NHDF; experiment: Aminolevulinic acid labeling with or without iron ion and reducing agent (degree of false-positive results); format: cell-based; conditions: 0.3 mM, 37° C., 60 min
# From the text: In accordance with the conventional method, human fibrosarcoma cell HT-1080 (DS Pharma Biomedical Co., Ltd.) and normal human dermal fibroblast cell NHDF (Lonza) in culture were harvested with trypsin (Invitrogen). The cell suspension of the harvested cancer cells was centrifuged, and the supernatant was removed. The cells were then resuspended with Dulbecco's PBS (+) (Nissui Pharmaceutical Co., Ltd.) and centrifuged, and the supernatant was removed again.
# The number of the cells was counted using a hemacytometer in accordance with the conventional method, and then 10^5 to 10^6 cells per sample (cell suspension) was aliquoted. The sample was centrifuged to remove the supernatant. In the case an iron ion and a reducing agent were added, 0.3 mM of aminolevulinic acid (trade name: 5-AMINOLEVULINATE HYDROCHLORIDE, Cosmo Bio Co., Ltd.), 0.3 mM of FeCl2 and 0.3 mM of ascorbic acid dissolved in Dulbecco's PBS (+) were added thereto, and the cells were suspended well. In the case an iron ion and a reducing agent were not added, 0.3 mM of aminolevulinic acid dissolved in Dulbecco's PBS (+) was added singly, and the cells were suspended well. Each of the mixture was then allowed to react at 37° C. for 60 minutes. The number of cells was adjusted, and then the cells were added dropwise to a 384-well plate. The plate was centrifuged to spin down the cells.
# The fluorescence filter set: EX (excitation wavelength) 402±7.5, DM 430 or longer, BA (fluorescence wavelength) 625±15.
# [3] = hemolyzed, 0.1 mM, 37° C., 60 min
# [4] = hemolyzed, 0.3 mM, 37° C., 60 min (concentration series)
# [5] = hemolyzed, 1 mM, 37° C., 60 min
# [6] = hemolyzed, 4° C., 0.3 mM, 60 min
# [7] = hemolyzed, 23° C., 0.3 mM, 60 min
# [8] = hemolyzed, 37° C., 0.3 mM, 60 min (temperature series)
# [9] = hemolyzed, 30 min, 0.3 mM, 37° C.
# [10] = hemolyzed, 60 min, 0.3 mM, 37° C. (time series)
# [11] = hemolyzed, 120 min, 0.3 mM, 37° C.
# [12] = without hemolyzing treatment, 0.1 mM, 37° C., 60 min
# [13] = without hemolyzing treatment, 0.3 mM, 37° C., 60 min (concentration series)
# [14] = without hemolyzing treatment, 1 mM, 37° C., 60 min
# [15] = without hemolyzing treatment, 4° C., 0.3 mM, 60 min
# [16] = without hemolyzing treatment, 23° C., 0.3 mM, 60 min
# [17] = without hemolyzing treatment, 37° C., 0.3 mM, 60 min (temperature series)
# [18] = without hemolyzing treatment, 30 min, 0.3 mM, 37° C.
# [19] = without hemolyzing treatment, 60 min, 0.3 mM, 37° C. (time series)
# [20] = without hemolyzing treatment, 120 min, 0.3 mM, 37° C.
# [21] = hemolyzed, 0.3 mM, 60 min, 37° C., threshold value 198 (Gastric cancer)
# [22] = hemolyzed, 0.3 mM, 60 min, 37° C., threshold value 203 (Fibrosarcoma)
# [23] = hemolyzed, 0.3 mM, 60 min, 37° C., threshold value 207 (Colon adenocarcinoma)
# [24] = hemolyzed, 0.3 mM, 60 min, 37° C., threshold value 212 (Alveolar epithelial cancer)
# [25] = hemolyzed, 0.3 mM, 60 min, 37° C., threshold value 265 (Prostate cancer)
# [26] = hemolyzed, 0.3 mM, 60 min, 37° C., threshold value 268 (Breast adenocarcinoma)
# [27] = Ascorbic acid 0.3 mM, FeC12 0.3 mM
structure (smiles),measurement,setting,value
"NCC(=O)CCC(=O)O [aminolevulinic acid, 5-amino-4-oxopentanoic acid]",Positive rate (Cancer cells),"[1]; Prostate cancer, hemolyzed, 0.3 mM, 60 min, 37° C., threshold value 265",92.7%
same,Positive rate (PC3 cells),[1]; [3],44%
same,Positive rate (PC3 cells),[1]; [4],85%
same,Positive rate (PC3 cells),[1]; [5],88%
same,Positive rate (PC3 cells),[1]; [6],31%
same,Positive rate (PC3 cells),[1]; [7],54%
same,Positive rate (PC3 cells),[1]; [8],80%
same,Positive rate (PC3 cells),[1]; [9],59%
same,Positive rate (PC3 cells),[1]; [10],93%
same,Positive rate (PC3 cells),[1]; [11],92%
same,Positive rate (PC3 cells),[1]; [12],54%
same,Positive rate (PC3 cells),[1]; [13],88%
same,Positive rate (PC3 cells),[1]; [14],94%
same,Positive rate (PC3 cells),[1]; [15],13%
same,Positive rate (PC3 cells),[1]; [16],18%
same,Positive rate (PC3 cells),[1]; [17],83%
same,Positive rate (PC3 cells),[1]; [18],80%
same,Positive rate (PC3 cells),[1]; [19],81%
same,Positive rate (PC3 cells),[1]; [20],84%
same,Negative rate (Blood cells (fresh blood)),Blood cells; [21],95.2%
same,Positive rate (Blood cells (fresh blood)),Blood cells; [21],4.8%
same,Negative rate (Blood cells (fresh blood)),Blood cells; [22],95.2%
same,Positive rate (Blood cells (fresh blood)),Blood cells; [22],4.8%
same,Negative rate (Blood cells (fresh blood)),Blood cells; [23],95.2%
same,Positive rate (Blood cells (fresh blood)),Blood cells; [23],4.8%
same,Negative rate (Blood cells (fresh blood)),Blood cells; [24],95.2%
same,Positive rate (Blood cells (fresh blood)),Blood cells; [24],4.8%
same,Negative rate (Blood cells (fresh blood)),Blood cells; [25],95.2%
same,Positive rate (Blood cells (fresh blood)),Blood cells; [25],4.8%
same,Negative rate (Blood cells (fresh blood)),Blood cells; [26],95.6%
same,Positive rate (Blood cells (fresh blood)),Blood cells; [26],4.4%
same,Negative rate (Blood cells),Blood cells; [3],98%
same,Positive rate (Blood cells),Blood cells; [3],2%
same,Negative rate (Blood cells),Blood cells; [4],93%
same,Positive rate (Blood cells),Blood cells; [4],7%
same,Negative rate (Blood cells),Blood cells; [5],87%
same,Positive rate (Blood cells),Blood cells; [5],13%
same,Negative rate (Blood cells),Blood cells; [6],98%
same,Positive rate (Blood cells),Blood cells; [6],2%
same,Negative rate (Blood cells),Blood cells; [7],98%
same,Positive rate (Blood cells),Blood cells; [7],2%
same,Negative rate (Blood cells),Blood cells; [8],88%
same,Positive rate (Blood cells),Blood cells; [8],12%
same,Negative rate (Blood cells),Blood cells; [9],98%
same,Positive rate (Blood cells),Blood cells; [9],2%
same,Negative rate (Blood cells),Blood cells; [10],100%
same,Positive rate (Blood cells),Blood cells; [10],0%
same,Negative rate (Blood cells),Blood cells; [11],94%
same,Positive rate (Blood cells),Blood cells; [11],6%
same,Negative rate (Blood cells),Blood cells; [12],98%
same,Positive rate (Blood cells),Blood cells; [12],2%
same,Negative rate (Blood cells),Blood cells; [13],99%
same,Positive rate (Blood cells),Blood cells; [13],1%
same,Negative rate (Blood cells),Blood cells; [14],93%
same,Positive rate (Blood cells),Blood cells; [14],7%
same,Negative rate (Blood cells),Blood cells; [15],98%
same,Positive rate (Blood cells),Blood cells; [15],2%
same,Negative rate (Blood cells),Blood cells; [16],100%
same,Positive rate (Blood cells),Blood cells; [16],0%
same,Negative rate (Blood cells),Blood cells; [17],100%
same,Positive rate (Blood cells),Blood cells; [17],0%
same,Negative rate (Blood cells),Blood cells; [18],98%
same,Positive rate (Blood cells),Blood cells; [18],2%
same,Negative rate (Blood cells),Blood cells; [19],99%
same,Positive rate (Blood cells),Blood cells; [19],1%
same,Negative rate (Blood cells),Blood cells; [20],86%
same,Positive rate (Blood cells),Blood cells; [20],14%
same,Negative rate (Normal epithelial cells (NHDF)),"[2]; Ascorbic acid 0, FeC12 0",37.7%
same,Positive rate (Normal epithelial cells (NHDF)),"[2]; Ascorbic acid 0, FeC12 0",62.3%
same,Negative rate (Normal epithelial cells (NHDF)),[2]; [27],85.7%
same,Positive rate (Normal epithelial cells (NHDF)),[2]; [27],14.3%
